# According to PubChem BioAssay (NCI):
# Several values for one entry are separate records, joined by “and”; a condition that tells them apart may be missing. Equal values may be shown once.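 Following 48 hours of exposure in 96-well plates, responses at five concentrations were used to interpolate endpoints linearly. GI50 is the concentration that inhibits growth by half. The concentration for full growth arrest is given as TGI.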
# Experiments:
# Assay in all cases: inhibition of tumour cell growth, NCI panel, 48 h
# [1] = system: M14 melanoma
# [2] = system: IGROV1 ovarian
# [3] = system: UACC-62 melanoma
# [4] = system: SR leukemia
# [5] = system: SK-MEL-5 melanoma
# [6] = system: A549 NSCLC
# [7] = system: K-562 leukemia
# [8] = system: SK-MEL-2 melanoma
# [9] = system: SW-620 colon
# [10] = system: A498 renal
SMILES,TGI [1],TGI [2] [µM],TGI [3] [µM],TGI [4] [µM],TGI [5] [µM],TGI [6] [µM],TGI [7] [µM],TGI [8] [µM],TGI [9] [µM],TGI [10] [µM],GI50 [1],GI50 [2] [µM],GI50 [3] [µM],GI50 [4],GI50 [5] [nM],GI50 [6],GI50 [7] [µM],GI50 [8],GI50 [9] [µM],GI50 [10]
Cc1cc(=O)[nH]c2cc3oc4ccccc4c3cc12,> 100 µM,> 100,> 100,> 44.3,> 100,> 100,> 100,> 100,> 100,> 100,,,,,,,,,,
NC(CCc1nc(-c2ccc(Cl)cc2)cs1)C(=O)O (centres undefined),> 100 µM,> 100,> 100,> 100,> 100,> 100,,> 100,> 100,> 100,,,,,,,,,,
CC1CN1P1(N2CC2C)=NP(N2CC2C)(N2CC2C)=NP(N2CC2C)(N2CC2C)=N1 (centres undefined),> 50 µM,> 50,,> 50,> 50,> 50,> 50,,> 50,> 50,,,,,,,,,,
O=C1c2cccnc2-c2nc(-c3ccccc3[N+](=O)[O-])cc3c2c1nc1ccccc13,10.7 µM,83.3,40.9,> 100,8.23,30.1,> 100,53.1,18.9,> 100,2990 nM,12.3,9.9,96100 nM,2600,14.4 µM,> 28.8,10.3 µM,3.27,> 77.3 µM
Nc1ccc(C(=O)N/C(=C\c2ccc3c(c2)OCO3)c2nc3[nH]c(=S)[nH]c(=O)c3[nH]2)cc1,> 100 µM,> 100,> 100,> 100,> 100,> 100,> 100,> 100,> 100,,,,,,,,,,,
CSc1ccc(/C=C2\CN(C)C/C(=C\c3ccc(SC)cc3)C2=O)cc1,> 100 µM,> 100,> 100,41.4,> 100,> 100,> 100,> 100,> 100,> 100,,,,,,,,,,
O=C(CSC(=S)N1CCCCC1)Nc1nc2c(s1)CCCC2,> 100 µM,> 100,,> 100,32.9,> 100,,> 100,> 100,> 100,,,,,,,,,,
Oc1ccc(Cl)cc1-c1cc(-c2ccccc2Cl)[nH]n1,> 100 µM,> 100,> 100,> 100,> 100,> 100,> 100,,> 100,> 100,25900 nM,1.66,5.29,4120 nM,5660,4.74 µM,4.59,,77.2,95.7 µM
O=C(O)C(Cc1ccccc1)N1C(=O)N/C(=C\c2ccc(F)cc2)C1=O (centres undefined),> 100 µM,> 100,> 100,> 100,> 100,> 100,> 100,> 100,> 100,,,,,,,,,,,
CC1=C(C(=O)Nc2ccccc2C)C(c2ccco2)C(C(=O)Nc2ccccc2C)=C(C)N1C,> 100 µM,> 100,> 100,> 100,> 100,> 100,> 100,> 100,> 100,,,,,,,,,,,
O=[S@@]1Nc2ccc(Br)cc2S1,> 100 µM,> 100,> 100,> 100,> 100,> 100,> 100,> 100,> 100,,,,,,,,,,,
COC(=O)[C@@H](C)C[C@H](Cc1ccc(F)cc1)NC(=O)c1csc([C@@H](C[C@H](C(C)C)N(C)C(=O)[C@@H](NC(=O)[C@H]2CCCCN2C)C(C)C)OC(C)=O)n1,0.763 µM and 0.079 µM,> 16.7,> 16.7,> 16.7,,> 16.7,> 16.7,> 16.7,> 16.7,0.111,1.19 nM and 5.39 nM,,,0.437 nM and 1.67 nM,,0.00277 µM and 0.0107 µM,,0.000792 µM and 0.00503 µM,,0.00469 µM and 0.0202 µM
FC(F)(F)c1ccc(C2SCc3nc4ccccc4n32)cc1 (centres undefined),,> 100,> 100,> 100,> 100,> 100,> 100,> 100,> 100,> 100,,,,,,,,,,
COC(=O)Nc1nc2ccc(S(=O)c3ccccc3)cc2[nH]1 (centres undefined),> 100 µM,> 100,> 100,> 100,> 100,> 100,,> 100,> 100,> 100,3110 nM,7.51,4.44,2250 nM,2830,5.48 µM,,3.29 µM,3.63,15.5 µM
Fc1ccc(Nc2ncnc3ccc(-c4cnc5[nH]ccc5c4)cc23)cc1Cl,> 100 µM,3.41,63.3,> 100,40.3,5.33,> 100,68.2,> 47.3,,4350 nM,0.45,6.06,2680 nM,6880,1.79 µM,3.48,16.6 µM,4.02,
CC(C)=CCCc1c(C)ccc2c1C(=O)C(=O)C(C(C)C)=C2,7.95 µM,> 22,,14.9,> 22,> 22,8.08,8.14,7.05,> 22,,,,,,,,,,
Cc1cc(=O)[nH]c(NNC(C#N)c2cccc(O)c2)n1 (centres undefined),> 100 µM,> 100,> 100,> 100,> 100,> 100,> 100,> 100,> 100,,,,,,,,,,,
Cc1cnc(NC(=O)C(Cc2ccccc2)NC(=O)c2ccccc2)s1 (centres undefined),3.95 µM,,3.7,26.6,3.85,15.8,> 100,,30.6,> 100,1750 nM,,1.45,2780 nM,1690,3.32 µM,37.2,,14,31.1 µM
COc1cccc(NC(=O)CC(=O)n2nc(C)c(N=Nc3ccccc3)c2C)c1,> 100 µM,> 100,> 100,> 100,> 100,> 100,,,> 100,> 100,,,,,,,,,,
CC[C@@]12CCCN3CC[C@]4(c5cccc(OC)c5N(C(C)=O)[C@@H]4CC1)[C@H]32,> 100 µM,> 100,> 100,55.9,> 100,> 100,,> 100,> 100,> 100,,,,,,,,,,
